{"source": "patent US20010027175A1", "about": "“Use of certain drugs for treating nerve root injury” (priority 1998, published 2001)", "key": {"[1]": {"molecular_target": "inducible nitrogen oxide synthetase (Homo sapiens, UniProt P35228)", "sequence (P35228 whole entry)": "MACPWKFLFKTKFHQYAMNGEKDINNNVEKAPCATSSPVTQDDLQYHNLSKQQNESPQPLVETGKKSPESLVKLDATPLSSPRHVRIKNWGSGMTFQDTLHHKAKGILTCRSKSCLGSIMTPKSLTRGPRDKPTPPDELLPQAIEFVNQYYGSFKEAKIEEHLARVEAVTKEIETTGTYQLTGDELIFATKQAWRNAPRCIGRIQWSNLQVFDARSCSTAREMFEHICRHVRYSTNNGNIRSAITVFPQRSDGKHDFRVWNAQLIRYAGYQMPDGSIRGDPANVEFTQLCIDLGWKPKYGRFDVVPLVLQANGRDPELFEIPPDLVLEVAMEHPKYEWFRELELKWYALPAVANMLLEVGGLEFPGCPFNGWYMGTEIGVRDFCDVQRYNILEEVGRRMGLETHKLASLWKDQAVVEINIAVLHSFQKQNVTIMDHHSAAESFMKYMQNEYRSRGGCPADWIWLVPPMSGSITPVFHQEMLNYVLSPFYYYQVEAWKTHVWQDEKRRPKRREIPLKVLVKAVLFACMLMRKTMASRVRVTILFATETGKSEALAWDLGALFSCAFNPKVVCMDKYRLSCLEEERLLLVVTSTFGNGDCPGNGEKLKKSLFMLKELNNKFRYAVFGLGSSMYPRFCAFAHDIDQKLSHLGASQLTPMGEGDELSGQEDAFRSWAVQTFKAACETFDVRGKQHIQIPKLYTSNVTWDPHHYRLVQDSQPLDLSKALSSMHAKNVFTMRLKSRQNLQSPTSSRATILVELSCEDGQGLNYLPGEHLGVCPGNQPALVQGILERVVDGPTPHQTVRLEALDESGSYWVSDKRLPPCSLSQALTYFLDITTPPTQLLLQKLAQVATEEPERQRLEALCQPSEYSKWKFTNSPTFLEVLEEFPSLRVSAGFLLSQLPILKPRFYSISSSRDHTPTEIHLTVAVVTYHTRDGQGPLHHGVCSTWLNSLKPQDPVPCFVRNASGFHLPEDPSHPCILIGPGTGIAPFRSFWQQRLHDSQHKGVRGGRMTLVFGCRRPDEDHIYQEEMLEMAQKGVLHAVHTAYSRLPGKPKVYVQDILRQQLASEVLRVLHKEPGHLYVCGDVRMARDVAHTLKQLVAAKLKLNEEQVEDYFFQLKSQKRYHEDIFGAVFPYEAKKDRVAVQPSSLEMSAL", "settings": "by inhibiting inducible nitrogen oxide synthetase; cited from earlier work"}, "[2]": {"system": "nucleus pulposus-induced reduction of nerve root conduction velocity (sacrococcygeal cauda equina)", "assay": "Series-2: nerve root conduction velocity three days after autologous nucleus pulposus application to the cauda equina", "format": "in vivo", "settings": "pig, mean ± SD", "protocol": "Series-2: Nucleus pulposus was harvested from lumbar discs and applied to the sacrococcygeal cauda equina in 13 pigs autologously. […] Three days after the application the nerve root conduction velocity was determined over the application zone by local electrical stimulation.\nThirteen pigs, (body weight 25-30 kg) received an intramuscular injection of 20 mg/kg body weight of Ketala (ketamine 50 mg/ml, Parke-Davis, Morris Plains, N.J.) and an intravenous injection of 4 mg/kg body weight of Hypnodil^R (methomidate chloride 50 mg/ml, AB Leo, Helsingborg, Sweden) and 0.I mg/kg body weight of Stresnil^R (azaperon 2 mg/ml, Janssen Pharmaceutica, Beerse, Belgium). […]\nThree days after the application, the pigs were reanaesthetized by an intramuscular injection of 20 mg/kg body weight of Ketalar^R and an intravenous injection of 35 mg/kg body weight of Pentothal^R (Thiopental sodium, Abbott lab, Chicago, Ill.). […] Local tissue temperature was continuously monitored and maintained at 37.5-38.0° C. by means of a heating lamp. […]\nThe person performing the neurophysiologic analyses was unaware of the experimental protocol for the individual animal, and after finishing the complete study the data were arranged in the three experimental groups and statistical differences between the groups were assessed by Student's t-test. […]"}, "[3]": {"system": "nucleus pulposus-related effects on adjacent nerve roots", "settings": "literature refs 38, 2, 3, 69; cited from earlier work"}, "[4]": {"system": "nucleus pulposus-induced reduction of nerve root conduction velocity (sacrococcygeal cauda equina)", "assay": "Series-3: nerve root conduction velocity seven days after autologous nucleus pulposus application to the cauda equina", "format": "in vivo", "settings": "pig; for NCV (m/s ± SD): seven days after nucleus pulposus application, mean ± SD; for block of nucleus pulposus induced nerve injury (in words): seven days, systemic treatment", "protocol": "Series-3: Thirteen pigs had autologous nucleus pulposus placed onto their sacrococcygeal cauda equina similar to series-2. Five pigs (bodyweight 25 kg) received Remicade^R (infliximab) 100 mg i.v. preoperatively, and 8 pigs received EnbrelR (etanercept) 12.5 mg s.c. preoperatively and additionally 12.5 mg s.c. three days after the operation. Seven days after the nucleus pulposus-application the nerve root conduction velocity was determined over the application zone by local electrical stimulation according to series-2. Five pigs (bodyweight 25 kg) received the human/murine monoclonal antibody Remicade^R (infliximab, […]) 100 mg i.v. preoperatively, and 8 pigs received Enbrel^R (etanercept, […]) 12.5 mg s.c. preoperatively and additionally 12.5 mg s.c. three days after the operation. Seven days after the nucleus pulposus-application the nerve root conduction velocity was determined over the application zone by local electrical stimulation according to series-2. […] No non-treated animals were included in the series-3 due to the pre-existing knowledge of nerve conduction velocity after seven days of either nucleus pulposus or fat (control) application. The statistical difference between the groups, infliximab, and etanercept, nucleus pulposus without treatment (positive control from previous data) and application of retroperitoneal fat (negative control from previous data) was assessed by using ANOVA and Fisher's PLSD at 5%."}}, "data": [{"compound": "N=C(N)NN", "note": "[Aminoguanidine]", "values": [{"measurement": "inhibition of release of nitrogen oxide (NO) at nerve root injuries (in words)", "setting": "[1]", "result": "inhibit the release of nitrogen oxide (NO)"}]}, {"compound": "C[C@H]1c2cccc(O)c2C(=O)C2=C(O)[C@]3(O)C(=O)C(C(N)=O)=C(O)[C@@H](N(C)C)[C@@H]3[C@@H](O)[C@@H]21", "note": "[Doxycycline, doxycycline]", "values": [{"measurement": "NCV (m/s ± SD)", "setting": "[2]", "result": "76 ± 9", "unit": "m/s"}]}, {"compound": "COc1ccc2c(c1)c(CC(=O)O)c(C)n2C(=O)c1ccc(Cl)cc1", "note": "[indomethacin]", "values": [{"measurement": "block of nucleus pulposus-related effects (in words)", "setting": "[3]", "result": "slightly less efficiently"}]}, {"compound": "CCN(CC)CC(=O)Nc1c(C)cccc1C", "note": "[lidocaine]", "values": [{"measurement": "block of nucleus pulposus-related effects (in words)", "setting": "[3]", "result": "slightly less efficiently"}]}, {"compound": "cyclosporin A", "values": [{"measurement": "block of nucleus pulposus-related effects (in words)", "setting": "[3]", "result": "blocked efficiently"}]}, {"compound": "etanercept [Embrel^R]", "values": [{"measurement": "NCV (m/s ± SD)", "setting": "[4]", "result": "78 ± 14", "unit": "m/s"}, {"measurement": "block of nucleus pulposus induced nerve injury (in words)", "setting": "[4]", "result": "blocked the nucleus pulposus induced nerve injury efficiently"}]}, {"compound": "infliximab [Remicade^R]", "values": [{"measurement": "NCV (m/s ± SD)", "setting": "[4]", "result": "79 ± 15", "unit": "m/s"}, {"measurement": "block of nucleus pulposus induced nerve injury (in words)", "setting": "[4]", "result": "blocked the nucleus pulposus induced nerve injury efficiently"}]}]}
